From PubChem BioAssay (NCI)
Several values for one entry are separate records, joined by “and”; a condition that tells them apart may be missing. Equal entries are not always repeated.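 How tested: cells in 96-well plates exposed to compound for 48 hours at five concentrations. GI50 = concentration required for 50% inhibition of growth. TGI: concentration producing complete growth inhibition.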

Experiments:
Assay in all cases: inhibition of tumour cell growth, NCI panel, 48 h
SR leukemia = tested on: SR leukemia
MALME-3M melanoma = tested on: MALME-3M melanoma
TK-10 renal = tested on: TK-10 renal
K-562 leukemia = tested on: K-562 leukemia
COLO 205 colon = tested on: COLO 205 colon
SK-MEL-5 melanoma = tested on: SK-MEL-5 melanoma
M14 melanoma = tested on: M14 melanoma
OVCAR-8 ovarian = tested on: OVCAR-8 ovarian
CAKI-1 renal = tested on: CAKI-1 renal
HCC-2998 colon = tested on: HCC-2998 colon
UACC-62 melanoma = tested on: UACC-62 melanoma
MOLT-4 leukemia = tested on: MOLT-4 leukemia
A549 NSCLC = tested on: A549 NSCLC

Compound	TGI (SR leukemia) [µM]	TGI (MALME-3M melanoma) [µM]	TGI (TK-10 renal) [µM]	TGI (K-562 leukemia) [µM]	TGI (COLO 205 colon) [µM]	TGI (SK-MEL-5 melanoma) [µM]	TGI (M14 melanoma) [µM]	TGI (OVCAR-8 ovarian) [µM]	TGI (CAKI-1 renal) [µM]	TGI (HCC-2998 colon) [µM]	TGI (UACC-62 melanoma) [µM]	TGI (MOLT-4 leukemia) [µM]	TGI (A549 NSCLC) [µM]	GI50 (K-562 leukemia)	GI50 (CAKI-1 renal)	GI50 (MOLT-4 leukemia)
N#CN/C(N)=N/C/N=C(\N)NC#N	93.5	> 100	> 100	> 100	> 100	> 100	> 100	> 100	> 100	> 100	> 100	> 100	> 100	–	–	–
O=C(c1nc2ccc([N+](=O)[O-])cc2[nH]c1=O)C(O)c1ccc2c(c1)OCO2 (stereo not given)	> 100	> 100	> 100	> 100	> 100	> 100	> 100	> 100	> 100	> 100	> 100	> 100	> 100	–	–	–
COc1ccc2nc(-c3ccccc3)cc(OCC(=O)O)c2c1	> 100	> 100	> 100	> 100	> 100	> 100	> 100	> 100	> 100	> 100	> 100	> 100	> 100	–	–	–
CN(C(=O)Cc1ccccc1)n1cnn(CC(=O)OC(C)(C)C)c1=S	> 10	> 10	> 10	> 10	> 10	> 10	> 10	> 10	> 10	> 10	> 10	> 10	> 10	–	–	–
C=C(C(=O)O)[C@@H]1C[C@@H]2O[C@H]1[C@@H](O)[C@@H](C)CCCC(C)=CCC[C@@]2(C)O	> 95	> 100	> 100	> 100	> 100	> 100	> 100	> 100	> 100	> 100	> 100	> 100	> 100	32.3 µM and 83.5 µM	37.2 µM and > 100 µM	27.2 µM and 56.9 µM
O=C1/C(=C\c2cccc(Oc3ccccc3)c2)SC(c2ccccc2)N1c1ccccc1 (stereo not given)	37.2	> 100	> 100	> 100	> 100	> 100	> 100	> 100	> 100	> 100	> 100	> 100	> 100	–	–	–
COC(=O)C1Cc2cc3c(cc2C1=O)CCCC3 (stereo not given)	> 100	> 100	> 100	> 100	> 100	> 100	> 100	> 100	> 100	> 100	> 100	> 100	> 100	–	–	–
[N-]=[N+]=NC(c1cn(C2CC(O)C(CO)O2)c(=O)[nH]c1=O)C(Br)Br (stereo not given)	> 100	> 100	> 100	> 100	> 100	> 100	> 100	> 100	> 100	> 100	> 100	> 100	> 100	–	–	–
O=C1c2cc(Cl)ccc2NC(=NC2CCCC2)C2CSCN12 (stereo not given)	> 100	> 100	> 100	> 100	> 100	> 100	> 100	> 100	> 100	> 100	> 100	> 100	> 100	–	–	–
CC(C)(C)OC(=O)NC1CC2(C=C(Br)C(=O)C(Br)=C2)OC1=O (stereo not given)	4.18	18.9	12.2	13.5	13.4	31.1	20.2	21.4	11.6	24.7	32.4	2.59	38.7	–	–	–
Cc1ccccc1OC(C)C(=O)NN1C(=O)CSC1c1ccc(Cl)cc1 (stereo not given)	> 46.3	> 100	> 100	> 77.1	> 100	> 100	> 100	> 100	> 100	> 100	> 100	> 59.7	> 100	–	–	–
NC(=O)N/N=C(/CC1C(=O)Oc2ccccc21)c1ccccc1O (stereo not given)	40.8	> 100	> 100	> 100	> 100	> 100	> 100	> 100	> 100	91.1	63.6	50.9	> 100	–	–	–
Nc1nc(Cl)c(N)c(NCC2(CO)CC2)n1	> 100	> 100	> 100	> 100	> 100	> 100	> 100	> 100	> 100	> 100	> 100	> 100	> 100	–	–	–
O=C(O)CCS/C(=C\C(SCCC(=O)O)c1ccc(Cl)cc1)c1ccc(Cl)cc1 (stereo not given)	78.5	> 100	> 100	> 100	43.4	> 100	> 100	> 100	> 100	54.7	38.4	> 100	> 100	–	–	–
O=C(/C=C/c1ccccc1)CSc1ncn[nH]1	> 100	> 100	> 100	> 100	> 100	> 100	> 100	> 100	> 100	> 100	> 100	> 100	> 100	–	–	–
CS(=O)(=O)OCCN(CCOS(C)(=O)=O)c1ccc(C=Nc2cccc(Cl)c2)cc1	0.307	33.2	6.79	> 100	6.56	22.6	55.5	> 100	1.56	19.7	15.6	1.31	29.2	–	–	–
Clc1ccc(C(c2ccccc2Cl)C(Cl)Cl)cc1 (stereo not given)	46.5	33.5	37.5	44.2	38.9	36.1	37.1	40	31.8	29.4	34.4	41.1	35.4	–	–	–
Cc1nc(C)c(N2CCN(S(=O)(=O)N(Cc3ccccc3)Cc3ccccc3)CC2)c(=O)[nH]1	> 100	> 100	> 72.9	> 100	> 100	> 100	> 100	54.1	> 47.9	> 100	> 100	> 100	> 100	–	–	–
c1ccc2c(c1)c1c(n2CCOCCN2CCCC2)CCCC1	35.2	31.3	37	31.5	38.2	30.3	29.5	57.6	96.9	30.2	33.7	34.3	> 100	–	–	–
c1cc2c(cc1NC1=NCCO1)OCO2	> 100	> 100	> 100	> 100	> 100	> 100	> 100	> 100	> 100	> 100	> 100	> 100	> 100	–	–	–
Cn1c2ccccc2c2c3c(c4c5ccccc5n(C)c4c21)C(=O)NC3=O	> 100	> 100	> 100	> 100	> 100	> 100	> 100	> 100	> 100	> 100	> 89.6	> 100	> 85.3	–	–	–
COC(=O)CCC1=C(CC(=O)OC)C(C)(OC)N=C1NC(=O)OCc1ccccc1 (stereo not given)	> 100	> 100	> 100	> 100	> 100	> 100	> 100	> 100	> 100	> 100	> 100	> 100	> 100	–	–	–
O=[N+]([O-])c1ccc2c(c1)N([O-])C1(CCCCC1)[N+]2=O	51.5	28.7	26.2	> 100	27.1	28.9	30.5	42.6	34.9	32.8	37.1	51.9	37	–	–	–
O=C(/C=C/c1cccc(Oc2ccccc2)c1)NCc1ccc(C(=O)NCc2ccccc2)cc1	> 100	> 100	> 100	> 100	> 100	> 100	> 100	> 100	> 100	> 100	> 100	> 100	> 100	–	–	–
